Experimental data published in ChEMBL document CHEMBL4364295, “Discovery of a First-in-Class Receptor Interacting Protein 2 (RIP2) Kinase Specific Clinical Candidate, 2-((4-(Benzo[d]thiazol-5-ylamino)-6-(tert-butylsulfonyl)quinazolin-7-yl)oxy)ethyl Dihydrogen Phosphate, for the Treatment of Inflammatory Diseases” (J Med Chem, 2019).
In brackets after ≈: the same amount, converted by molar mass. Activity calls are given as the source filed them. The calls are words filed in the database; no cut-off is given here.

Columns and labels:
[1] = Cmax in Sprague-Dawley rat at 200 mg/kg, po using crystalline sample during 7 day dose ranging study by LC/MS/MS analysis; format: ADME, organism-based; parameters: dose 200 mg/kg, route oral; conditions: in vivo
[2] = Cmax in Sprague-Dawley rat at 60 mg/kg, po using crystalline sample during 7 day dose ranging study by LC/MS/MS analysis; format: ADME, organism-based; parameters: dose 60 mg/kg, route oral; conditions: in vivo
[3] = target: T1, Nucleotide-binding oligomerization domain-containing protein 2 (Homo sapiens, UniProt Q9HC29); experiment: Inhibition of NOD2 in human monocytes assessed as reduction in MDP-induced TNFalpha production preincubated for 30 mins followed by MDP-stimulation and measured after 6 hrs by immunoassay; format: cell-based
T1 sequence (Q9HC29 whole entry, the tested form may be a part): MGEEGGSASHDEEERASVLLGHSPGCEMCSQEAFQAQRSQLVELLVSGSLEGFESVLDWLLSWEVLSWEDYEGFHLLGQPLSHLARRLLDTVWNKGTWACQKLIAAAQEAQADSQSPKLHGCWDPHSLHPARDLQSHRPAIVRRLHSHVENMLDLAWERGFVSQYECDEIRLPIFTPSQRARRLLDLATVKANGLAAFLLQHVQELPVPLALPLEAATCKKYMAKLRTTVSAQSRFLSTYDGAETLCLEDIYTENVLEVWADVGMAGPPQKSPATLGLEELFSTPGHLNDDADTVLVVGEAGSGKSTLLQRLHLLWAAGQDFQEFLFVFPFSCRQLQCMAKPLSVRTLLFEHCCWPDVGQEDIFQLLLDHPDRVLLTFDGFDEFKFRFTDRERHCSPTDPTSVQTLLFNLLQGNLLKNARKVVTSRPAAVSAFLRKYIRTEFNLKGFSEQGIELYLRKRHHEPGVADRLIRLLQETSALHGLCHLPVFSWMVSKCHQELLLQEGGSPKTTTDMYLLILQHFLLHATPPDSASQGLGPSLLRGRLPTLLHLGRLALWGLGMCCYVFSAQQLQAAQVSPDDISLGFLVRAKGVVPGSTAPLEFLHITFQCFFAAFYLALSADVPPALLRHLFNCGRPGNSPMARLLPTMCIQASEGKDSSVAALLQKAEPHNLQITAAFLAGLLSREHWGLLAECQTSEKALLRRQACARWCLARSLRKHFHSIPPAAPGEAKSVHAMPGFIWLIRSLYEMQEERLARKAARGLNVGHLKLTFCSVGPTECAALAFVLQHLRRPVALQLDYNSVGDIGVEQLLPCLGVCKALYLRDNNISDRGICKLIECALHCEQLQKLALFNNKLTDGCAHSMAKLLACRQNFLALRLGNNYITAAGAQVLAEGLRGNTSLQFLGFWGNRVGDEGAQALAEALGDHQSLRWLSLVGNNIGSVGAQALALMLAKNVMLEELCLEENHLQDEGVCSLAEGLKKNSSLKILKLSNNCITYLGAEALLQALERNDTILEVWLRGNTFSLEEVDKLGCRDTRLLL

[4] = Clearance in Sprague-Dawley rat at 2 mg/kg, po or 0.5 mg/kg, iv by LC/MS/MS analysis; format: ADME, organism-based; conditions: in vivo
[5] = Volume of distribution at steady state in Gottingen minipig at 1 mg/kg, po or 0.4 mg/kg, iv by LC/MS/MS analysis; format: ADME, organism-based, Sus scrofa; conditions: pig, in vivo, read-out: Vdss
[6] = AUC in Gottingen minipig at 1 mg/kg, po by LC/MS/MS analysis; format: ADME, organism-based, Sus scrofa; conditions: pig, in vivo
[7] = AUC in Sprague-Dawley rat at 60 mg/kg, po using crystalline sample during 7 day dose ranging study by LC/MS/MS analysis; format: ADME, organism-based; conditions: in vivo
[8] = target: T1, Nucleotide-binding oligomerization domain-containing protein 2; experiment: Inhibition of human NOD2 expressed in HEK293 cells assessed as reduction in MDP-induced IL8 production measured after 22 hrs by HTRF fluorescence assay; format: cell-based
[9] = Cmax in Sprague-Dawley rat at 2 mg/kg, po by LC/MS/MS analysis; format: ADME, organism-based; parameters: dose 2 mg/kg, route oral; conditions: in vivo
[10] = Solubility of the compound in FaSSIF measured after 4 hrs; format: physicochemical
Cricetinae = experiment: Displacement of [125I]2-iodomelatonin from hamster MT3 receptor at 10 uM measured after 60 mins by scintillation counting method
[11] = Terminal half life in Beagle dog at 2 mg/kg, po or 1.1 mg/kg, iv by LC/MS/MS analysis; format: ADME, organism-based, Canis lupus familiaris; conditions: in vivo, read-out: beta t1/2 (converted)
[12] = Oral bioavailability in Beagle dog at 2 mg/kg by LC/MS/MS analysis; format: ADME, organism-based, Canis lupus familiaris; conditions: in vivo
[13] = AUC in Beagle dog at 2 mg/kg, po by LC/MS/MS analysis; format: ADME, organism-based, Canis lupus familiaris; conditions: in vivo
[14] = Prodrug conversion in human hepatocytes assessed as 2-((4-(Benzo[d]thiazol-5-ylamino)-6-(tert-butylsulfonyl)quinazolin-7-yl)oxy)ethanol formation at 20 uM measured after 4 hrs; format: ADME, cell-based, Hepatocyte
[15] = Prodrug conversion in Han Wistar rat skin assessed as 2-((4-(Benzo[d]thiazol-5-ylamino)-6-(tert-butylsulfonyl)quinazolin-7-yl)oxy)ethanol formation at 2 mg/kg, iv administered as infusion for 4 hrs; format: ADME, organism-based, Zone of skin; conditions: in vivo
[16] = Oral bioavailability in Sprague-Dawley rat assessed as 2-((4-(Benzo[d]thiazol-5-ylamino)-6-(tert-butylsulfonyl)quinazolin-7-yl)oxy)ethanol level at 2 mg/kg by LC/MS/MS analysis; format: ADME, organism-based; conditions: in vivo
[17] = Prodrug conversion in Sprague-Dawley rat stomach assessed as 2-((4-(Benzo[d]thiazol-5-ylamino)-6-(tert-butylsulfonyl)quinazolin-7-yl)oxy)ethanol formation at 2 mg/kg, po or 0.5 mg/kg, iv measured at 15 to 120 mins post dose; format: ADME, organism-based; conditions: in vivo
[18] = Drug uptake in Beagle dog systemic circulation at 2 mg/kg, po or 0.9 mg/kg, iv by LC/MS/MS analysis; format: ADME, organism-based, Canis lupus familiaris; conditions: in vivo
[19] = Drug uptake in Han Wistar rat colon at 2 mg/kg, iv administered as infusion for 4 hrs; format: ADME, organism-based; conditions: in vivo
[20] = Prodrug conversion in Han Wistar rat eye assessed as 2-((4-(Benzo[d]thiazol-5-ylamino)-6-(tert-butylsulfonyl)quinazolin-7-yl)oxy)ethanol formation at 2 mg/kg, iv administered as infusion for 4 hrs; format: ADME, organism-based; conditions: in vivo
[21] = Terminal half life in Beagle dog assessed as 2-((4-(Benzo[d]thiazol-5-ylamino)-6-(tert-butylsulfonyl)quinazolin-7-yl)oxy)ethanol level at 2 mg/kg, po or 0.9 mg/kg, iv by LC/MS/MS analysis; format: ADME, organism-based, Canis lupus familiaris; conditions: in vivo
[22] = Prodrug conversion in Sprague-Dawley rat gut assessed as 2-((4-(Benzo[d]thiazol-5-ylamino)-6-(tert-butylsulfonyl)quinazolin-7-yl)oxy)ethanol formation at 2 mg/kg, po or 0.5 mg/kg, iv measured at 15 to 120 mins post dose; format: ADME, organism-based; conditions: in vivo
[23] = Drug uptake in Gottingen minipig systemic circulation at 2 mg/kg, po or 1 mg/kg, iv by LC/MS/MS analysis; format: ADME, organism-based, Sus scrofa; conditions: pig, in vivo
[24] = Half life in human blood; format: ADME, tissue-based
[25] = Prodrug conversion in Sprague-Dawley rat hepatic portal vein assessed as 2-((4-(Benzo[d]thiazol-5-ylamino)-6-(tert-butylsulfonyl)quinazolin-7-yl)oxy)ethanol formation; format: ADME; conditions: in vivo
[26] = Prodrug conversion in minipig hepatocytes assessed as hydrogenation at 20 uM measured after 4 hrs; format: ADME, cell-based, Sus scrofa, Hepatocyte; conditions: pig
[27] = Prodrug conversion in human hepatocytes assessed as 2-(4-(benzo[d]thiazol-5-ylamino)-6-(tert-butylsulfonyl)quinazolin-7-yloxy)acetic acid formation at 20 uM measured after 4 hrs; format: ADME, cell-based, Hepatocyte
[28] = Drug uptake in Han Wistar rat eye at 2 mg/kg, iv administered as infusion for 4 hrs; format: ADME, organism-based; conditions: in vivo
[29] = Prodrug conversion in minipig hepatocytes assessed as dephosphorylation at 20 uM measured after 4 hrs; format: ADME, cell-based, Sus scrofa, Hepatocyte; conditions: pig
Cytochrome P450 3A4 = Cytochrome P450 3A4 (Homo sapiens, UniProt P08684); experiment: Inhibition of CYP3A4 (unknown origin); format: ADME
Sequence of Cytochrome P450 3A4 (P08684 whole entry): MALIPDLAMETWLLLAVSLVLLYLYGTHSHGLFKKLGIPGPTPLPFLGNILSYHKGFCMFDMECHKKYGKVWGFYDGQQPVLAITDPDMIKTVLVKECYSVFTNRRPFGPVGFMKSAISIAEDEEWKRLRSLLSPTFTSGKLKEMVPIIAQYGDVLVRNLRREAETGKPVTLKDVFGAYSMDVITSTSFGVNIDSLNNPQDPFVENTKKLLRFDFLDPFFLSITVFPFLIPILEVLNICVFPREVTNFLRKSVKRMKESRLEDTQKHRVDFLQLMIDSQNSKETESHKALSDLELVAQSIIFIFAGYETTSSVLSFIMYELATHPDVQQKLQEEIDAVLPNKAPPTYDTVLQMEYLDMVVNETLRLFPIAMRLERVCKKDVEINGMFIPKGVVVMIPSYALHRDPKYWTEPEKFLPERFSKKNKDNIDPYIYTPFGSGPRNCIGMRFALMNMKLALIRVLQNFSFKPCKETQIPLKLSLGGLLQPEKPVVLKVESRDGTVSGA

[30] = Oral bioavailability in Beagle dog assessed as 2-((4-(Benzo[d]thiazol-5-ylamino)-6-(tert-butylsulfonyl)quinazolin-7-yl)oxy)ethanol level at 2 mg/kg by LC/MS/MS analysis; format: ADME, organism-based, Canis lupus familiaris; conditions: in vivo
[31] = Prodrug conversion in minipig hepatocytes assessed as (2S,3S,4S,5R,6R)-6-(2-(4-(benzo[d]thiazol-5-ylamino)-6-(tert-butylsulfonyl)quinazolin-7-yloxy)ethoxy)-3,4,5-trihydroxytetrahydro-2H-pyran-2-carboxylic acid formation at 20 uM measured after 4 hrs; format: ADME, cell-based, Sus scrofa, Hepatocyte; conditions: pig
[32] = Drug uptake in Han Wistar rat skin at 2 mg/kg, iv administered as infusion for 4 hrs; format: ADME, organism-based, Zone of skin; conditions: in vivo
[33] = Prodrug conversion in rat hepatocytes assessed as 2-(4-(benzo[d]thiazol-5-ylamino)-7-(2-hydroxyethoxy)quinazolin-6-ylsulfonyl)-2-methylpropan-1-ol formation at 20 uM measured after 4 hrs; format: ADME, cell-based, Hepatocyte
[34] = Prodrug conversion in rat hepatocytes assessed as dephosphorylation at 20 uM measured after 4 hrs; format: ADME, cell-based, Hepatocyte
[35] = Prodrug conversion in minipig hepatocytes assessed as 2-(4-(benzo[d]thiazol-5-ylamino)-6-(tert-butylsulfonyl)quinazolin-7-yloxy)acetic acid formation at 20 uM measured after 4 hrs; format: ADME, cell-based, Sus scrofa, Hepatocyte; conditions: pig
[36] = Prodrug conversion in rat hepatocytes assessed as 2-(4-(benzo[d]thiazol-5-ylamino)-6-(tert-butylsulfonyl)quinazolin-7-yloxy)acetic acid formation at 20 uM measured after 4 hrs; format: ADME, cell-based, Hepatocyte
[37] = Prodrug conversion in Han Wistar rat brain assessed as 2-((4-(Benzo[d]thiazol-5-ylamino)-6-(tert-butylsulfonyl)quinazolin-7-yl)oxy)ethanol formation at 2 mg/kg, iv administered as infusion for 4 hrs; format: ADME, organism-based; conditions: in vivo

CC(C)(C)S(=O)(=O)c1cc2c(Nc3ccc4scnc4c3)ncnc2cc1OCCO
Cmax [1]: 4900 ng/mL | Cmax [2]: 2100 ng/mL | inhibition [3]: Dose-dependent effect | clearance [4]: 27 mL/min/kg | Vd [5]: 1.8 L/kg | AUC [6]: 85 ng·h/mL | AUC at 168 h [7]: 23400 ng·h/mL | IC50 [8]: 4 nM | inhibition [8]: Dose-dependent effect | Cmax [9]: 120 ng/mL | solubility at 4 h [10]: 4 µg/mL (≈ 8.72 µM) | inhibition (Cricetinae): Active | half-life [11]: 5.1 h | bioavailability [12]: 57% | AUC [13]: 1800 ng·h/mL

CC(C)(C)S(=O)(=O)c1cc2c(Nc3ccc4scnc4c3)ncnc2cc1OCCOP(=O)(O)O.[CaH2]
Drug metabolism [14]: Metabolite_Detected | Drug metabolism [15]: Metabolite_Detected | F [16]: 77% | Drug metabolism [17]: Metabolite_Detected | Drug uptake [18]: Not Active | Drug uptake [19]: Not Active | Drug metabolism [20]: Metabolite_Detected | beta t1/2 [21]: 2.9 h | Drug metabolism [22]: Metabolite_Detected | Drug uptake [23]: Not Active | half-life [24]: 0.417 h | Drug metabolism [25]: Metabolite_Detected | Drug metabolism [26]: Metabolite_Detected | Drug metabolism [27]: Metabolite_Detected | Drug uptake [28]: Not Active | Drug metabolism [29]: Metabolite_Detected | IC50 (Cytochrome P450 3A4): > 30000 nM | F [30]: 100% | Drug metabolism [31]: Metabolite_Detected | Drug uptake [32]: Not Active | Drug metabolism [33]: Metabolite_Detected | Drug metabolism [34]: Metabolite_Detected | Drug metabolism [35]: Metabolite_Detected | Drug metabolism [36]: Metabolite_Detected | Drug metabolism [37]: Metabolite_Detected
